Data as given in ChEMBL document CHEMBL1201862, “PubChem BioAssay data set” (2004).
One block for each compound: values may come before it. Calls of active or inactive are those of the source.

How the values were obtained:
[1] = molecular target: T1, NADPH oxidase 1 (Homo sapiens, UniProt Q9Y5S8); assay: Late-stage luminescence-based cell-based dose response assay to identify inhibitors of NADPH oxidase 1 (NOX1): Purchased analogs 2.; format: functional
T1 sequence (Q9Y5S8 whole entry): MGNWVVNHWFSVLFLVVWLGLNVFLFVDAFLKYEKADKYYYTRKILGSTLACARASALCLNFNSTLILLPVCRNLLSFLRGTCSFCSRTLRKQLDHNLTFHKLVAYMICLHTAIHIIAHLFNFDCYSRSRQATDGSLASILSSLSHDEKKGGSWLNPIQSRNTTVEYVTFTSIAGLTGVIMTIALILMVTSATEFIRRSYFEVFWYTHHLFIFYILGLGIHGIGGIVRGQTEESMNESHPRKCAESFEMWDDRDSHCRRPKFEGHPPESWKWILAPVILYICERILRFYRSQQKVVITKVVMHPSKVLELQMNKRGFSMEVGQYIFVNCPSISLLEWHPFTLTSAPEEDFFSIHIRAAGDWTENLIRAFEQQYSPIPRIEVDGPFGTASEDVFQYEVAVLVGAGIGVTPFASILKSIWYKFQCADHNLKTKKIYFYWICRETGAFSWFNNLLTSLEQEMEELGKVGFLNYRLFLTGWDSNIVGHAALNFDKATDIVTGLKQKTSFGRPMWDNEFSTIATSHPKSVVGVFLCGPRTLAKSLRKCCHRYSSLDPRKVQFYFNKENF

[2] = molecular target: T1, NADPH oxidase 1; assay: Late stage results from the probe development effort to identify inhibitors of NOX1: HEK/293 IC50. [Related pubchem assays: 1796 (Summary AID (NOX1)), 2752 (Primary screen (NOX1 inhibitors, synthesized analogs set 2)), 2664 (Primary screen (NOX1 inhibitors, synthesized analogs)), 1792 (Primary Screen (NOX1)), 2545 (Confirmation screen (NOX1 …; format: functional
[3] = molecular target: T2, Tyrosine-protein phosphatase non-receptor type 7 (Homo sapiens, UniProt P35236); assay: inhibitors of human HePTP phosphatase, […], biochemical, absorbance, leukemia target (AID 521); format: functional
T2 sequence (P35236 whole entry): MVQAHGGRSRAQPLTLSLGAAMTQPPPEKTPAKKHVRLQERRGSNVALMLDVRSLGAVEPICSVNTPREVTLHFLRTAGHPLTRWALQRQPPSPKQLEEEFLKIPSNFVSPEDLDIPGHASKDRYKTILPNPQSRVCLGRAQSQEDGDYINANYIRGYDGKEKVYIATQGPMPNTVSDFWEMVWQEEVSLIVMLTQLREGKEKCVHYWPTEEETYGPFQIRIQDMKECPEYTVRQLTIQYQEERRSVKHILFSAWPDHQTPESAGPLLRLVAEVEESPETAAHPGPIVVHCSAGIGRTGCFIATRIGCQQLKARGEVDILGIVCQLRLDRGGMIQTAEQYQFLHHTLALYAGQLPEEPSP

[4] = molecular target: G-protein coupled receptor 183 (Homo sapiens, UniProt P32249); assay: SAR confirmation of small molecule antagonists of the EBI2 receptor via a luminescent beta-arrestin assa.; format: functional
G-protein coupled receptor 183, sequence (P32249 whole entry): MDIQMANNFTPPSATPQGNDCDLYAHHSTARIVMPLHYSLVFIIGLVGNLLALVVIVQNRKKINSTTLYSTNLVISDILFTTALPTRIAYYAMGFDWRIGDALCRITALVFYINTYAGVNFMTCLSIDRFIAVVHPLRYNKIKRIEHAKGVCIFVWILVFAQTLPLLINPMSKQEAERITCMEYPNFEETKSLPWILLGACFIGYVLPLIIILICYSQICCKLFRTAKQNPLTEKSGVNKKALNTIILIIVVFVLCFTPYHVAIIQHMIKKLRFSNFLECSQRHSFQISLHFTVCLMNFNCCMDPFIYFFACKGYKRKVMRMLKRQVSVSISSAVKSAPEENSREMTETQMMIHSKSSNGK

[5] = molecular target: T3, Phospholipase D1 (Homo sapiens, UniProt Q13393); assay: PLD1 Cellular Concentration Response Study.; format: functional
T3 sequence (Q13393 whole entry): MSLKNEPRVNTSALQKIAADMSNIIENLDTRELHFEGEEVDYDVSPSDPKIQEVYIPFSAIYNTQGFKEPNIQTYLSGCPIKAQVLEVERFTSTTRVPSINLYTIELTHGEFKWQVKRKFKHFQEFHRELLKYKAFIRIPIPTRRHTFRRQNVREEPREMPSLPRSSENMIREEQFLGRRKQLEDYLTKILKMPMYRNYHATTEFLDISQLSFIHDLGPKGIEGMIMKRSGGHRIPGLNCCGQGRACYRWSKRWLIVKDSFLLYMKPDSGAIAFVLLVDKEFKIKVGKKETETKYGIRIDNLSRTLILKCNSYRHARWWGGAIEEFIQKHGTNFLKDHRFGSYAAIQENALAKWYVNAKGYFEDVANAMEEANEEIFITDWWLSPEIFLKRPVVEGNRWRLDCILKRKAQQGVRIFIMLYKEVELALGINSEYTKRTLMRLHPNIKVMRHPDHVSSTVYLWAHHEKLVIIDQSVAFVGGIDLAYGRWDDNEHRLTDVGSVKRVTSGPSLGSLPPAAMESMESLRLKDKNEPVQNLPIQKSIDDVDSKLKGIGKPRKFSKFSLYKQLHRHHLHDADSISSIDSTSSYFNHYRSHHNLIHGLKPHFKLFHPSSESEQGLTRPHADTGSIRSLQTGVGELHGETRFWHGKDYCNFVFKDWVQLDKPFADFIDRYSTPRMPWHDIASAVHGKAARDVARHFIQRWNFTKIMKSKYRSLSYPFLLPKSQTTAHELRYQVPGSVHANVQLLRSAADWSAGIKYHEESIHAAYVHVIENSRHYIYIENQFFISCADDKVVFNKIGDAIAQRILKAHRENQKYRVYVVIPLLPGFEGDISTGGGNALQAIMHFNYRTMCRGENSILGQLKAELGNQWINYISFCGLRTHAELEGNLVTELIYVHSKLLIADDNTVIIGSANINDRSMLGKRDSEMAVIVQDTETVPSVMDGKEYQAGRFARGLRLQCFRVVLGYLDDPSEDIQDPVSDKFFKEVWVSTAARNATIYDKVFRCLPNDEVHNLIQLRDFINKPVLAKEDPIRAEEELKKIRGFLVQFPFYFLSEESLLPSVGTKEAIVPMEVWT

[6] = molecular target: Phospholipase D2 (Homo sapiens, UniProt O14939); assay: PLD2 Cellular Concentration Response Study.; format: functional
Phospholipase D2, sequence (O14939 whole entry): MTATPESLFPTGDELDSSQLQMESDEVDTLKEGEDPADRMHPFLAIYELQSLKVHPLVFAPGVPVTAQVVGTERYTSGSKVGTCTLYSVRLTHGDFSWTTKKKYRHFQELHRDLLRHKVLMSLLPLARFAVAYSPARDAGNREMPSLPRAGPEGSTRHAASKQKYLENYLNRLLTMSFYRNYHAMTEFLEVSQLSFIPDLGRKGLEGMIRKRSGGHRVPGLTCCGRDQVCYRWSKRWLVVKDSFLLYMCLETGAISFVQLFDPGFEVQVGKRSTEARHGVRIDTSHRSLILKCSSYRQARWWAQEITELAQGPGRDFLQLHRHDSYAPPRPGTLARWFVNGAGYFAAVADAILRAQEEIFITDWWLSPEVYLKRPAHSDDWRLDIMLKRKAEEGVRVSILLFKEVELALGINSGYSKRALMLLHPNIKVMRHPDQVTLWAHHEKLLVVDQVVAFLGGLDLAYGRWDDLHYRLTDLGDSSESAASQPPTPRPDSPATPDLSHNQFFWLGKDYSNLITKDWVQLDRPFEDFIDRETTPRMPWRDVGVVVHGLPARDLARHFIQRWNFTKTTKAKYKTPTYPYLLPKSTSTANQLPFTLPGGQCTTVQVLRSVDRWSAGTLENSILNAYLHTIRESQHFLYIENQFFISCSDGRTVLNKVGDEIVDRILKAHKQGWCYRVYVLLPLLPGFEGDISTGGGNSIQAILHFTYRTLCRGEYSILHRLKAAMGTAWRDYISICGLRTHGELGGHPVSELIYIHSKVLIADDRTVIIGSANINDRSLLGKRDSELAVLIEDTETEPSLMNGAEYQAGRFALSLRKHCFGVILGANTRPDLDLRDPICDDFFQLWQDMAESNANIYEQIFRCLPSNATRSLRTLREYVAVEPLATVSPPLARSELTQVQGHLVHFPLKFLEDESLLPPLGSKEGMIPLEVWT

[7] = Glucagon-like peptide 1 release potency, NCI-H716 cell line, dose-response, half-maximal inhibitory concentration (AID 1117344); format: functional, cell-based
[8] = Dose-response inhibition of insulin secretion in a rat insulinoma line at 5 mM glucose (AID 1117331); format: functional, cell-based; settings: INS-1E
[9] = half-maximal inhibitory concentration for glucagon-like peptide-1 release, STC-1 cell line, dose-response (AID 1117345); format: functional, cell-based

SMILES: COc1cc(/C=N/Nc2c(F)c(F)nc(F)c2F)cc(OC)c1O
IC50 [1]: 2.94 µM (active)

SMILES: CCc1ccccc1N(CC(=O)OC)S(C)(=O)=O
IC50 [3]: > 100 µM (not active)

SMILES: O=C(NCCN1CCC2(CC1)C(=O)NCN2Cc1cccnc1)c1ccc(Cl)c(Cl)c1
IC50 [5]: 20 µM (active)
IC50 [6]: 1.24 µM (active)

SMILES: NC(=O)C1(N2CCCCC2)CCN(CCCN2c3ccccc3CCc3ccc(Cl)cc32)CC1 [CLOCAPRAMINE]
IC50 [7]: 18.3 µM (inactive)
IC50 [8]: 10.1 µM (inactive)
IC50 [9]: > 40 µM (inactive)

Results, then the compound that gave them:

IC50 [2]: 0.36 µM (active)
SMILES: c1ccc2c(c1)Nc1nc3ccccc3nc1N2

IC50 [4]: 0.00117 µM (active)
SMILES: O=C(/C=C/c1ccc(Cl)c(Cl)c1)N1CCN(C(=O)c2ccc(Cl)cc2)CC1
